# Results reported in publication PMC11763264, “Antibacterial and Antifungal Activities of Linear and Cyclic Peptides Containing Arginine, Tryptophan, and Diphenylalanine” (Antibiotics, 2025).
# Non-standard residues stand in square brackets, D forms with d. Residues, ends and D or L forms follow the SMILES beside them. Dip = N[C@H](C(=O)O)C(c1ccccc1)c1ccccc1
# What was measured:
# Test in all cases: microbe, parasite or virus in culture
# [1] = test system: K. pneumoniae (ATCC BAA-1705); type: cell-based, Klebsiella pneumoniae; details: ATCC BAA-1705, 24 h
# Experimental: (§1) The antibacterial activity of all ten synthesized linear and cyclic peptides was evaluated against MRSA (ATCC BAA-1556), S. aureus (ATCC 29213), E. faecium (ATCC 700221), S. pneumoniae (ATCC 51938), E. faecalis (ATCC 29212), B. subtilis (ATCC-6633), K. pneumoniae (ATCC BAA-1705), P. aeruginosa (ATCC 27883), and E. coli (ATCC 25922). Meropenem and daptomycin were used as positive controls for this study. Certain peptides are marked as “NT” (not tested) against specific bacterial strains based on initial screening data. […] The MIC was determined by micro-broth dilution protocol, where the minimal concentrations were determined to be in wells with no visible bacterial growth.
# (§2) All bacterial experiments were carried out in a laminar flow hood (Labconco, Kansas City, MO, USA). The bacterial strains were cultured following the guidelines set by the Clinical Laboratory Standards Institute (CLSI). Antibacterial assays were performed using a standard microtiter dilution method as described in previous studies. The minimum inhibitory concentration (MIC) refers to the lowest peptide concentration that inhibits bacterial growth in wells with no visible bacterial growth. MIC was determined by micro-broth dilution. Bacteria were cultured overnight in 6 mL of Luria Broth (LB). A stock solution of the peptide was prepared in water and DMSO, and a test compound solution with a concentration of 256 µg/mL was made in LB. Meropenem, with a solubility of 8 mg/mL, was prepared as a stock solution at 4 mg/500 µL. An aliquot of the overnight bacteria culture was diluted in normal saline (NS, 1 mL) until achieving a 0.5 McFarland turbidity (1.5 × 10^8 bacterial cell CFU/mL). A 0.5 McFarland compared solution (60 µL) was added to Mueller Hinton Broth (MH) 8940 µL to generate a 1/150 dilution. A 200 µL test compound solution was added to the first well of a 96-well plate, and the remaining wells (2–12) were filled with 100 µL of MH media using a multi-channel pipette from a sterile reservoir. A concentration of […] of the tested peptides was prepared from a stock solution of the samples for testing in Muller−Hinton broth MH media. Peptides stock solution was dissolved in 5% DMSO in water, and the final concentration of DMSO in the first well of assay plate was 2.5% DMSO/H2O and diluted across the assay plate.
# (§3) A 100 µL sample from well 1 was pipetted into well 2, and the solution was mixed thoroughly by pipetting up and down. Next, 100 µL was transferred from well 2 to well 3, followed by thorough mixing. This 2-fold serial dilution process continued through well 11, with no additions made to well 12. The final 100 µL from well 11 was discarded. After completing the serial dilution, each well (1–12) contained 100 µL of solution. The bacterial culture in MH media was vortexed and transferred to a sterile reservoir, from which 100 µL was added to each well using a 12-channel pipette. (Note: The dilutions were further diluted upon adding the bacterial solution; for example, the concentration in well 1 started at […] after the addition of the bacterial culture.) The plates were incubated overnight at 37 °C for 24 h. All experiments were performed in triplicate and repeated twice, with controls consisting of bacteria in MH media and positive controls of daptomycin or meropenem.
# A. fumigatus (Af-293) = type: cell-based, Aspergillus fumigatus; details: RPMI 1640 with 2% D-glucose, HEPES, 10^6 cells/mL, 24 and 48 h at 35 °C, no visible growth; triplicates, repeated twice
# Experimental: The antifungal activity of all ten synthesized linear and cyclic peptides was evaluated against C. albicans (ATCC 60193), C. parapsilosis (ATCC 22019), and A. fumigatus (AF-293). Fluconazole and amphotericin B were used as positive controls for this study. The MIC was determined at concentrations in wells with no visible fungal growth.
# A. fumigatus (Af-293) was cultured on Sabouraud dextrose agar (SDA) (Lot #3431660, Oxoid) for 48–72 h at 35 °C to obtain fresh and mature colonies which reached the proper sporulation then used to prepare the inoculum. The colonies were covered with Phosphate-Buffered Saline (PBS) containing 0.025% Tween-20, scraped from the plate, and carefully collected into a sterile tube. The suspension was centrifuged at 3000 RPM for 5 min after the separation between conidia and hyphae. The supernatant was discarded, and the pellet was resuspended in 5 mL of PBS.
# Peptide concentrations of 50, 25, 12.5, 6.25, and 3.1 μg/mL were tested in triplicate. Each well of a 96-well plate was inoculated with the prepared inoculum suspension, which was diluted with RPMI 1640 medium containing L-glutamine, supplemented with 2% D-glucose, and the pH adjusted using HEPES buffer. The plates were incubated for 50 min at 35 °C to achieve a final cell concentration of 10^6 cells/mL. The control wells contained the same inoculum without any compound. The plates were then incubated for 24 and 48 h at 35 °C. Fungal growth was visualized, and the minimum inhibitory concentration (MIC) was determined as the lowest peptide concentration, where no growth was observed.
# E. faecalis (ATCC 29212) = type: cell-based, Enterococcus faecalis; details: ATCC 29212, 24 h
# Experimental: as §1, §2, §3
# B. subtilis (ATCC-6633) = type: cell-based, Bacillus subtilis; details: ATCC-6633, 24 h
# Experimental: as §1, §2, §3
# E. coli (ATCC 25922) = type: cell-based, Escherichia coli; details: ATCC 25922, 24 h
# Experimental: as §1, §2, §3
smiles,measurement,setting,value
N=C(N)NCCC[C@@H]1NC(=O)[C@H](C(c2ccccc2)c2ccccc2)NC(=O)[C@H](CCCNC(=N)N)NC(=O)[C@H](C(c2ccccc2)c2ccccc2)NC(=O)[C@H](CCCNC(=N)N)NC(=O)[C@H](C(c2ccccc2)c2ccccc2)NC(=O)[C@H](CCCNC(=N)N)NC(=O)[C@H](C(c2ccccc2)c2ccccc2)NC(=O)[C@H](CCCNC(=N)N)NC(=O)[C@H](C(c2ccccc2)c2ccccc2)NC1=O [[DipR]5] (cyclo([Dip]R[Dip]R[Dip]R[Dip]R[Dip]R)),MIC,[1],25 µM
same,MIC,A. fumigatus (Af-293),1.6 µM
same,MIC,E. faecalis (ATCC 29212),0.78 µM
same,MIC,B. subtilis (ATCC-6633),6.3 µM
same,MIC,E. coli (ATCC 25922),12.5 µM
